From patent publication US7049301B2, “Quercetin derivatives and their medical usages” (Academy of Military Medical Sciences Institute of …, priority 2001, dated 2006)
Like-named read-outs stand apart in the source and are kept apart here.

Assays:
5HT1A receptor = biological target: T1, 5HT1A receptor (Rattus norvegicus, UniProt P19327); test: 5HT1A receptor test, competition with 3H-8-OH-DPAT on rat hippocampal membrane receptor; assay type: binding
T1 construct: 50 μl of 1:5 suspension of rat hippocampal membrane receptor; from tissue; host or cells: rat hippocampal membranes
T1 sequence (P19327 1-422): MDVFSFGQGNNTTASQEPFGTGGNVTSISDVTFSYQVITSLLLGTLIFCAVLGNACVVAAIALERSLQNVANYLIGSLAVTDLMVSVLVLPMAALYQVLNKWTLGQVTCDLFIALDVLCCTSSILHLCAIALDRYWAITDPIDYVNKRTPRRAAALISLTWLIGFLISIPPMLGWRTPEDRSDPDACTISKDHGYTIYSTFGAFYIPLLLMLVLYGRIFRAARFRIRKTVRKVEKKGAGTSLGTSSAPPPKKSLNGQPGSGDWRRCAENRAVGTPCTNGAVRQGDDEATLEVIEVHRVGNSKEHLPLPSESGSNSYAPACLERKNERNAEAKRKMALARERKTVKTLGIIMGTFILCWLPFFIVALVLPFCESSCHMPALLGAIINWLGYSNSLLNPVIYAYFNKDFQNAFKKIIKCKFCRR
Procedure: 20 μl of ^3H-8-OH-DPAT ([…]) and 20 μl of sample solutions of different concentrations are added into 50 μl of 1:5 suspension of rat hippocampal membrane receptor, followed by addition of buffer solution to make up to final volume of 200 μL. Then the above-mentioned suspension is shaken up and incubated in a water-bath at 25° C. for 30 minutes. After quick filtration by suction and washing the membrane receptors, radioactivity value is read by liquid scintillation counter. 20 μl of 5HT […] sulfate (1 mmol) solution is used instead to determine the non-specific conjugation. Buspirone, a partially activating agent of 5HT1A receptor, is used as the positive control. The competitive inhibition rate of the sample to ^3H-8-OH-DPAT is calculated according to the radioactivity value.

adenylate cyclase (AC) = test: Activation of adenylate cyclase (AC) in rat cerebral cortex synaptolemma, cAMP produced; assay type: biochemical; settings: for Amount of cAMP produced: X ± SD; for Activation of AC (in words): rat cerebral cortex synaptolemma
Procedure: 3.1 Effect on Activities of Adenylate Cyclase (AC) in Rat Cerebral Cortex:
Male Wistar rats weighed 200±20 g are sacrificed by decollation, and cerebral cortex is separated. Synaptolemma is extracted at 4° C. according to the method as described in literature (Rasenick M M et al, Pro. Natl. Acad. Sci. USA, 1980; 77:4628) and suspended in buffer solution, so that a protein concentration of 3˜5 mg/ml is reached. The synaptolemma has to be incubated in advance with the test medicine, as adenylate cyclase (AC) is located on it. The experiment is carried out as follows: portions of 100 μl reaction solution containing certain concentration of test medicine and 15 mmol/L HEPES, pH=7.5, 5 mmol/L MgCl2, 1 mmol/L EGTA, […], 60 mmol/L NaCl, 1 mmol/L aminophylline, 0.5 mg/ml phosphocreatine and 0.14 mg/ml phosphocreatine kinase are respectively dispensed into reaction tubes, followed by addition of 20 μg synaptolemma to each tube. Then, the tubes are immediately put into a water-bath at 30° C. to react for 10 minutes, which reaction is linear during the first 20 minutes. After that, all the reaction tubes are immediately transferred into boiling water and deposited for 3 minutes to terminate the reaction. The amount of cAMP thus produced is measured in an ice-bath environment with cAMP kit, the total reaction volume is 130 μL. The measure is carried out according to the instruction of the kit: various reagents are added and, after the reaction finishes, the tubes are centrifugated at 4000 rpm for 7 minutes. 120 μl supernatant is then pipetted into the measure cup, added afterwards with 1.5 ml anhydrous alcohol, after shaken up, 3.5 ml of scintillation solution is added. Then, the cups are sealed and shaken up, and are left overnight. The values of […] of all samples are determined then by Wallac 1409 liquid scintillation counter. The amount of cAMP produced can be calculated according to the standard curve and CPM. The results are statistically analyzed by ANOVA, and Dunnett's T test is made for inter-group comparison.

mice = test: Forced swimming test; assay type: in vivo; settings: for Duration of immobility: abdominal administration, last 4 of 6 minutes; for immobility time: oral
Procedure: (1) The test is carried out according to literature (Arch Int. Pharmacodn. Ther, 1977, 229(2): 327). 30 minutes after abdominal injection or 60 minutes after oral administration, the mice are put into an open glass box (19 cm high and 12 cm of diameter). Water inside the glass box is 8 cm in depth and 22˜23° C. in temperature. The mice are put into the water for 6 minutes and observed by Vidio movement analyzer, the accumulated immobility time of the mice during the last 4 minutes and their activity are analyzed identically as above.

[1] = test system: PC-12 cells damaged by corticosterone; test: Protection of PC-12 cells damaged by corticosterone (MTT); assay type: cell-based, rat; settings: for Absorbance (A): 10^−4 mol/L corticosterone, 48 h, MTT, 570 nm; for Increase of A (%): vs damaged control
Procedure: 3.2. Protection Effect of Compound of Formula I on PC-12 Cells Damaged by Corticosterone.
PC-12 cells are diluted into a suspension (2×10^5 cells/ml) with DMEM culture solution containing 5% calf serum and 5% horse serum, and then are transplanted into 96-well plates pretreated with polylysine, and cultivated under conditions of 37° C. and 5% CO2 for 2˜3 days. Cells are to grow all over the wells bottom before test. The culture solution is then pipetted away and serum-free DMEM is added containing certain concentration of test medicine and 10^−4 mol/L corticosterone, 10 μl of 5 mg/ml MTT is added 48 hours later to each well, shaking up slightly and, 4 hours later, 100 μl of 10% SDS is added to each well, again shaking up slightly. The plates are then left in the incubator overnight at 37° C.(about 8˜12 hours). After all the dark-blue crystals are dissolved, shaking up slightly and absorbance (A) of each sample at 570 nm is read using microplate reader.

SMILES: CC1OC(OC[C@H]2O[C@@H](Oc3c(-c4ccc(O)c(O)c4)oc4cc(O)cc(O)c4c3=O)[C@H](O[C@@H]3OC[C@](O)(CO)[C@H]3O)[C@@H](O)[C@@H]2O)C(O)C(O)C1O (stereo in doubt) [Compound of formula I, quercetin-3-O-β-D-apiofuranosyl-(1→2)-[α-D-rhamnopyranosyl-(1→6)]-β-D-glucopyranoside]
- IC50 (5HT1A receptor): ~0.05 nM
- Amount of cAMP produced (adenylate cyclase (AC); 13.5 μM (0.01 mg/ml)): 23.27 ± 4.95 pmol/mg protein/minute
- Amount of cAMP produced (adenylate cyclase (AC); 13.5 μM (0.01 mg/ml), listed as compound of formula I): 23.27±4.95 pmol/mg protein/minute
- Amount of cAMP produced (adenylate cyclase (AC); 40.5 μM): 4.75 ± 6.33 pmol/mg protein/minute
- Amount of cAMP produced (adenylate cyclase (AC); 135 μM): 43.42 pmol/mg protein/minute
- AC activation relative to same doses of imipramine and buspirone (adenylate cyclase (AC); 404 μM (0.3 mg/ml)): 2˜3 times
- Activation effect on AC (cAMP produced) (adenylate cyclase (AC); 404 μM (0.3 mg/ml)): 68.34±10.45 pmol/mg protein/minute
- Amount of cAMP produced (adenylate cyclase (AC); 405 μM): 68.34 pmol/mg protein/minute
- Duration of immobility (mice; 0.31 mg/kg): 148.69 ± 30.81 s
- Duration of immobility (mice; 0.31 mg/kg, listed as compound of formula I): shorten the immobility time
- Duration of immobility (mice; 1.25 mg/kg): 149.94 ± 34.87 s
- Duration of immobility (mice; 5.00 mg/kg): 134.38 ± 40.99 s
- immobility time (mice; 3.75 mg/kg): 95.2 ± 47.4 s
- immobility time (mice; 7.5 mg/kg): 62.2 ± 45.9 s
- immobility time (mice; 7.5 mg/kg, listed as compound of formula I): shorten the immobility time
- immobility time (mice; 15 mg/kg): 53.6 ± 50.8 s
- immobility time (mice; 30 mg/kg): 111.5 ± 52.9 s
- Protection effect on PC-12 cells damaged by corticosterone (in words) [1]: strong protection effect
- Absorbance (A) ([1]; 4.04 μmol·L^−1): 0.74 ± 0.14
- Increase of A (%) ([1]; 4.04 μmol·L^−1): 208.3%
- Absorbance (A) ([1]; 14.38 μmol·L^−1): 0.84 ± 0.08
- Increase of A (%) ([1]; 14.38 μmol·L^−1): 250.0%
- Absorbance (A) ([1]; 40.43 μmol·L^−1): 0.86 ± 0.10
- Increase of A (%) ([1]; 40.43 μmol·L^−1): 258.3%
- Absorbance (A) ([1]; 134.77 μmol·L^−1): 0.77 ± 0.11
- Increase of A (%) ([1]; 134.77 μmol·L^−1): 220.8%
- Absorbance (A) ([1]; 404.31 μmol·L^−1): 0.61 ± 0.16
- Increase of A (%) ([1]; 404.31 μmol·L^−1): 154.2%

SMILES: CCOc1cc(OCC)c2c(=O)c(OC3OC(COC4OC(C)C(O)C(O)C4O)C(O)C(O)C3OC3OCC(O)(CO)C3O)c(-c3ccc(OCC)c(OCC)c3)oc2c1 [5,7,3′,4′,-tetraethoxyl flavonol-3-O-β-D-apiofuranosyl-(1→2)-[α-D-rhamnopyranosyl-(1→6)]-β-D-glucopyranoside]
- IC50 (5HT1A receptor; competitive inhibition of 3H-8-OH-DPAT, rat hippocampal membrane, 25° C., 30 minutes, read-out: IC50): ~0.2 nM

SMILES: O=C1CC2(CCCC2)CC(=O)N1CCCCN1CCN(c2ncccn2)CC1 [buspirone]
- Amount of cAMP produced (adenylate cyclase (AC); 25 μM): 19.52 ± 5.46 pmol/mg protein/minute
- Amount of cAMP produced (adenylate cyclase (AC); 100 μM): 19.71 ± 5.57 pmol/mg protein/minute
- Amount of cAMP produced (adenylate cyclase (AC); 400 μM): 24.63 pmol/mg protein/minute
- Amount of cAMP produced (adenylate cyclase (AC); 1 mM): 33.00 pmol/mg protein/minute
- Activation of AC (in words) (adenylate cyclase (AC)): dose-dependently activate AC

SMILES: CN(C)CCCN1c2ccccc2CCc2ccccc21 [imipramine]
- Amount of cAMP produced (adenylate cyclase (AC); 25 μM): 15.07 ± 4.91 pmol/mg protein/minute
- Amount of cAMP produced (adenylate cyclase (AC); 100 μM): 18.53 ± 3.2 pmol/mg protein/minute
- Amount of cAMP produced (adenylate cyclase (AC); 400 μM): 30.32 pmol/mg protein/minute
- Amount of cAMP produced (adenylate cyclase (AC); 1 mM): 79.79 pmol/mg protein/minute
- Activation of AC (in words) (adenylate cyclase (AC)): dose-dependently activate AC
